In patent US20230203440A1, “AXIAL STEM CELLS, METHODS OF PRODUCING AND USES THEREOF” (HELMHOLTZ ZENTRUM MUNCHEN - DEUTSCHES FORSCHUNGSZENTRUM FUR …, priority 2020, published 2023):

Legend:
[1] = test system: hESCs; assay: Continuous CHIR99021 treatment of hESCs (time course, qPCR and RNA-seq); assay type: cell-based, human; settings: continuous 10 μM treatment of hESCs, compared to transient activation for 24 hours
Protocol: In time course experiments cells were dissociated using Accutase (Sigma) and seeded into 12-well plates at 2.5×10^5 cells per well in mTesR1 medium supplemented with 10 μM Y-27632 (R&D). 24 hours later medium was replaced with differentiation medium: RPMI-1640 with L-Glutamine and 1× B-27 supplement without insulin containing 10 μM CHIR99021 (Tocris). In case of beta-catenin overexpression, the procedure was the same, except that CHIR99021 was replaced with 1 μg/ml doxycycline (Clontech). All cell culture media components were from Life Technologies unless indicated otherwise.
Total RNA was isolated using RNeasy mini kit (Qiagen). cDNA was synthesized from 0.2-1 μg of total RNA (normalized amount between samples within each experiment) using Verso cDNA synthesis kit (Thermo Scientific) according to manufacturers instructions. […] Relative fold changes (FC) in gene expression were calculated using ΔΔCt method (Livak and Schmittgen, 2001). […]
3 μg of total RNA were treated with TURBO DNase (Life Technologies) and purified using RNeasy Minelute RNA cleanup kit (Qiagen). RNA quality was assessed using microcapillary electrophoresis on Agilent 2100 Bioanalyzer with RNA Pico 6000 kit (Agilent) and only RNA with RIN values >8 was processed further. […] The quality of the libraries was assessed using Agilent 2100 Bioanalyzer with the DNA 1000 kit (Agilent). […] Sequencing depth was 12-14 Mio reads per sample. […]

[2] = test system: H9 hESC line; assay: Axial stem cell derivation from hESCs by serial passaging in maintenance medium with ligands; assay type: cell-based, human; settings: for derivation of stable lines on addition of the ligand: added to maintenance medium
Protocol: (§1) Cells were seeded as described above and treated with 10 μM CHIR for 24 hours. Afterwards cells were split at 1:20-1:30 ratio into Matrigel-coated 6-well plates containing maintenance medium (RPMI-1640 supplemented with L-Glutamine, 1× non-essential amino acids, 1× B-27 supplement without vitamin A and the respective ligands (see Table 1) and the cultures were incubated until they became confluent. Confluent cultures were routinely split at 1:10-1:20 ratio until the end of establishment phase defined at passage 9. Splitting was done with either Passaging solution XF or Versene (Life Technologies). FGF2-containing medium was prepared freshly every week, the media without FGF2—at least every 2 weeks. No manual colony picking or scraping off the differentiated cells was employed at any stage during the establishment of cell lines.
Total RNA was isolated using RNeasy mini kit (Qiagen). cDNA was synthesized from 0.2-1 μg of total RNA (normalized amount between samples within each experiment) using Verso cDNA synthesis kit (Thermo Scientific) according to manufacturers instructions. 1 μl of cDNA (1:5 dilutions) were used as template in 10 μl qPCR reactions. PCR was set up using either pre-designed Taqman Gene Expression Assays together with Taqman Gene Expression Master Mix (both from Thermo Scientific) or custom-designed primers together with Power SYBR Green master mix (Thermo Scientific). All primer and Taqman probe details are listed in, e.g., Table 2. Primer concentration in the reactions was 250 nM for all primers. PCR was performed on QuantStudio 12K Flex Real-Time PCR System (Thermo Scientific) using pre-defined cycling parameters. 2 technical replicates were run for each reaction. Taqman assays and primers used are listed in, e.g., Table 2. GAPDH served as a housekeeping gene in all experiments. Relative fold changes (FC) in gene expression were calculated using ΔΔCt method (Livak and Schmittgen, 2001). Results are presented as mean ΔΔCt±standard error of the mean between biological replicates, unless indicated otherwise. Plots were produced using ggplot2 package (Wickham, 2009) in RStudio software running R version 3.5.1 (R Core Team, 2018).
For immunofluorescent analysis, cells were seeded onto either matrigel-coated glass coverslips or into matrigel-coated 4-well μ-slides (Ibidi). For IF on differentiated motor neurons, AxCS lines were differentiated directly on the coverslips. […] Primary antibody dilutions (e.g., Table 3) in the blocking buffer were added and incubated overnight at 4° C. Next day, cells were washed with PBS 3 times and incubated with secondary antibodies diluted in PBS for 1 hours at RT. Coverslips were mounted using ProLong Gold mounting reagent with DAPI. Images were obtained at 63× magnification using Zeiss Axio Observer.Z1 epifluorescent microscope equipped with Apotome.2 and Zen software (Zeiss).

[3] = test system: human iPSC line HMGU #1; assay: Axial stem cell derivation from human iPS cell line; assay type: cell-based; settings: 10 μM CHIR99021 with inhibition of TGF-β, human iPSCs
Protocol: as §1, with “FIG. 6: A) Schematic of axial stem cell derivation from human iPS cell line (HMGU #1). μM concentrations refer to CHIR99021. […] B) Quantitative qPCR analysis of marker gene expression in iPS-derived axial stem cell lines at passage 9. Expression is normalized to GAPDH and plotted as log2 fold change over undifferentiated parental iPS cell line. Error bars represent standard error of the mean between biological replicates (derivations). n=1 to 6. Cells” for “Cells”

## Cc1c[nH]c(-c2cnc(NCCNc3ccc(C#N)cn3)nc2-c2ccc(Cl)cc2Cl)n1 [CHIR99021]
[1]
  TBXT expression: sustained high level of TBXT
[2]; 5 μM CHIR99021 alone
  marker expression of derived cell lines: high levels of SOX2 in conjunction with PAX6, but no T, CDX2, MIXL1 or EOMES
[2]; 5 μM CHIR99021 with FGF2
  marker expression of derived cell lines: high levels of SOX2, TBXT, CDX2, MIXL1, EOMES and very low level or no PAX6
[2]; 7.5 μM CHIR99021
  marker expression of derived cell lines: intermediate levels of TXBT and PAX6
[2]; 10 μM CHIR99021, hESC
  toxicity to conversion: toxic to hESC conversion
[2]; 5 or 7.5 μM CHIR99021, presence or absence of FGF2, hESCs
  derivation of cell lines: enabled the derivation of lines that exhibited compact stem cell colony morphology
[2]; CHIR99021 lower than 5 μM
  derivation of cell lines: did not promote the formation of cell lines
[2]; passaging beginning at 24 hours, in presence of CHIR99021
  SOX2 expression of passaged progeny: stably expressing SOX2 at a comparable level to undifferentiated hESCs
[3]
  derivation of axial cell lines: permissive for the derivation of SOX2/TXBT axial cell lines

## NC(=O)c1ccc(-c2nc(-c3ccc4c(c3)OCO4)c(-c3ccccn3)[nH]2)cc1 [SB-431542]
[2]; TGF-β inhibition
  spontaneous differentiation and colony compactness of the stem cell lines: reduced spontaneous differentiation and maintained the lines as more compact colonies
[2]; TGF-β inhibitor applied to maintenance medium
  cell and colony morphology of derived lines: created more compact cells and denser colonies

## FGF2
[2]; passaging in presence of CHIR99021 with or without FGF2
  sustained TBXT expression on passaging: sustained expression required the presence of FGF2

## TGF-β: Human recombinant TGF-β1 (Peprotech)
[2]
  derivation of stable lines on addition of the ligand: prohibited the deviation of stable lines altogether

B1: BMP4: Human recombinant BMP4 (R&D Systems) (protein, UniProt P12644 293-408, looked up)
Bone morphogenetic protein 4: SPKHHSQRARKKNKNCRRHSLYVDFSDVGWNDWIVAPPGYQAFYCHGDCPFPLADHLNSTNHAIVQTLVNSVNSSIPKACCVPTELSAISMLYLDEYDKVVLKNYQEMVVEGCGCR
[2]
  derivation of stable lines on addition of the ligand: prohibited the deviation of stable lines altogether
